pIC50: −log10 of the molar value.
How the values were obtained:
Acetylcholinesterase [1] = molecular target: T1, Acetylcholinesterase (Homo sapiens, UniProt P22303); test: Inhibition of AChE (unknown origin) by Ellman's method
Acetylcholinesterase [2] = molecular target: T1, Acetylcholinesterase; test: Inhibition of AChE (unknown origin) using acetylthiocholine iodide as substrate measured after 15 mins by Ellman's method
Cholinesterase = Cholinesterase (Homo sapiens, UniProt P06276); test: Inhibition of BChE (unknown origin) incubated for 10 mins by Ellman's method
[3] = molecular target: T2, Amine oxidase [flavin-containing] A (Homo sapiens, UniProt P21397); test: Inhibition of MAO-A (unknown origin)
T2 sequence (P21397 whole entry): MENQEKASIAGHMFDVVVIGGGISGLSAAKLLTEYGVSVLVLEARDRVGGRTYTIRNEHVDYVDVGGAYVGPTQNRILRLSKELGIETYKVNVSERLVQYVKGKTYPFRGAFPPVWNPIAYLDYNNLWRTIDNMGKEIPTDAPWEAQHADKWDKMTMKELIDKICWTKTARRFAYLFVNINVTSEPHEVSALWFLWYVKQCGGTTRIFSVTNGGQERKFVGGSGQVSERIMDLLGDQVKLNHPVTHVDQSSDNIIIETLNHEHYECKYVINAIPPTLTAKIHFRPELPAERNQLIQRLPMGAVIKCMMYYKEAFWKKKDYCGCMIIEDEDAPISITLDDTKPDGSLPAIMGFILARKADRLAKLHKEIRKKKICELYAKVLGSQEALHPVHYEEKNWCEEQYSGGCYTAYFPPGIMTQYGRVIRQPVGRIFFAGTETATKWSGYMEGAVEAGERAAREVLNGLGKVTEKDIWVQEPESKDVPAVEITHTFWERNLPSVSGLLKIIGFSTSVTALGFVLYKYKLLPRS

Acetylcholinesterase [4] = molecular target: T3, Acetylcholinesterase (Electrophorus electricus, UniProt O42275); test: Inhibition of electric eel AChE using acetylthiocholine iodide as substrate preincubated for 5 mins followed by substrate addition by DTNB reagent based Ellman's method
[5] = molecular target: T4, Amine oxidase [flavin-containing] B (Homo sapiens, UniProt P27338); test: Inhibition of MAO-B (unknown origin)
T4 sequence (P27338 whole entry): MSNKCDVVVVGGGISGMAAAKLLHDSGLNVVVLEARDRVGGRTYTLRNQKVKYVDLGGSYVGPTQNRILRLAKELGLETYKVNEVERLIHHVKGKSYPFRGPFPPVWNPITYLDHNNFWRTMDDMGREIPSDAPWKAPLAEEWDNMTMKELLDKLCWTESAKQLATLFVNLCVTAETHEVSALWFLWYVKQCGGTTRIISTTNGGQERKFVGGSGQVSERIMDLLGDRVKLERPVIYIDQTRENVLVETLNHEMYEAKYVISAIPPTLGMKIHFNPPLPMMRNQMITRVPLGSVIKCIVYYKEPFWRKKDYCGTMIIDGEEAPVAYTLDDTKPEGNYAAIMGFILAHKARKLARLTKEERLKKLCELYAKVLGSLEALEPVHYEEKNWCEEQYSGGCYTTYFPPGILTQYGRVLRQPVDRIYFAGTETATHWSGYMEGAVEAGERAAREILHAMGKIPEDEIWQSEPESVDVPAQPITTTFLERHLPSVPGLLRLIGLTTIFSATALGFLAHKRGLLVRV

Acetylcholinesterase [6] = molecular target: T1, Acetylcholinesterase; test: Inhibition of AChE (unknown origin)
[7] = molecular target: High affinity cGMP-specific 3',5'-cyclic phosphodiesterase 9A (Homo sapiens, UniProt O76083); test: Inhibition of PDE9A (unknown origin)
[8] = molecular target: T5, Glycogen synthase kinase-3 beta (Homo sapiens, UniProt P49841); test: Inhibition of GSK3beta (unknown origin)
Beta-secretase 1 [9] = molecular target: T6, Beta-secretase 1 (Homo sapiens, UniProt P56817); test: Inhibition of BACE-1 (unknown origin) measured after 2 hrs by FRET assay
Acetylcholinesterase [10] = molecular target: T3, Acetylcholinesterase; test: Inhibition of electric eel AChE using acetylthiocholine iodide as substrate preincubated with compounds for 20 mins followed by substrate addition and measured after 5 mins by Ellman's method
Acetylcholinesterase [11] = molecular target: T1, Acetylcholinesterase; test: Inhibition of human recombinant AChE using acetylthiocholine iodide as substratE incubated for 20 mins by DTNB reagent based Ellman's method
Beta-secretase 1 [12] = molecular target: T6, Beta-secretase 1; test: Inhibition of human BACE-1 by FRET assay
Acetylcholinesterase [13] = molecular target: T1, Acetylcholinesterase; test: Inhibition of AChE (unknown origin) at 40 uM by Ellman's method relative to control
[14] = Permeability of compound at pH 7.4 by PAMPA assay; type: ADME; settings: read-out: permeability
[15] = molecular target: T4, Amine oxidase [flavin-containing] B; test: Inhibition of human MAO-B using Tyramine hydrochloride as substrate preincubated for 30 mins followed by substrate addition and measured for 1 hr by fluorometric method
Beta-secretase 1 [16] = molecular target: T6, Beta-secretase 1; test: Inhibition of BACE-1 (unknown origin) incubated for 60 mins by TR-FRET assay
Acetylcholinesterase [17] = molecular target: T1, Acetylcholinesterase
Description: Inhibition of human AChE by Ellman's method

[18] = molecular target: T5, Glycogen synthase kinase-3 beta; test: Inhibition of human recombinant GSK3beta by ADP-Glo Kinase Assay
Acetylcholinesterase [19] = molecular target: T1, Acetylcholinesterase; remark: listed apart in the source

Chain of Cholinesterase (P06276 whole entry): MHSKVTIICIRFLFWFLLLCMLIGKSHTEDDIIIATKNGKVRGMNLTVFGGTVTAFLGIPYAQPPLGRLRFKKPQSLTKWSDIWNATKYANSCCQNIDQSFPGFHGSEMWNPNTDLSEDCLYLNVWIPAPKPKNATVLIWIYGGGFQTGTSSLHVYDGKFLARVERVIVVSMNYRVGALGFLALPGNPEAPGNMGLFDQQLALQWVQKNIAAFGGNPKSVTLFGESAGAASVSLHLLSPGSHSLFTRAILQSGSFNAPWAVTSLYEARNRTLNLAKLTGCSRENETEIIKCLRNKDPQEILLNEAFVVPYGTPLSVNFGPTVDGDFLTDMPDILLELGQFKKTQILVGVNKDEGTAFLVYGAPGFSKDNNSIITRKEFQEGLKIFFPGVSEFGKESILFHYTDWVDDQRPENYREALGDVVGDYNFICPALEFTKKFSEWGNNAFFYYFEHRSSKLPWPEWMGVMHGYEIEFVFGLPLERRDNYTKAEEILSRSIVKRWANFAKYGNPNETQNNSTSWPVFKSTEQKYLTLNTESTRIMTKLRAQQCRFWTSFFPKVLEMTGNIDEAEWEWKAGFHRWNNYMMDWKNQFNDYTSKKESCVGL
T1 sequence (P22303 whole entry): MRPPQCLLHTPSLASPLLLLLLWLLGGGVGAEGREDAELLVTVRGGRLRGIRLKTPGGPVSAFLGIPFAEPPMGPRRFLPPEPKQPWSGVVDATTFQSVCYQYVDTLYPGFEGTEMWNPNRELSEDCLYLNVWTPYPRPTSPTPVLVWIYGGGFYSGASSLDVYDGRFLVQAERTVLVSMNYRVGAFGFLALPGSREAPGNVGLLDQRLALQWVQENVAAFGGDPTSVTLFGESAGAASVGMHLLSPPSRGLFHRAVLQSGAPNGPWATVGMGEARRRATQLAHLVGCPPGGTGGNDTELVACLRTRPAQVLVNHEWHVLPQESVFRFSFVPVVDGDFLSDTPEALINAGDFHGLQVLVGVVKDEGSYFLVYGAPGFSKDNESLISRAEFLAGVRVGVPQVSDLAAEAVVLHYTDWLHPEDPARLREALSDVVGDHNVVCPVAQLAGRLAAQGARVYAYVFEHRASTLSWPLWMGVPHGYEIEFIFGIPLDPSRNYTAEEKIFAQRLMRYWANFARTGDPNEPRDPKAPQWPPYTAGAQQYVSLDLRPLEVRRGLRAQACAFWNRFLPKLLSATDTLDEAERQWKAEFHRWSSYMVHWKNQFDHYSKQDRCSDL
T6 sequence (P56817 whole entry): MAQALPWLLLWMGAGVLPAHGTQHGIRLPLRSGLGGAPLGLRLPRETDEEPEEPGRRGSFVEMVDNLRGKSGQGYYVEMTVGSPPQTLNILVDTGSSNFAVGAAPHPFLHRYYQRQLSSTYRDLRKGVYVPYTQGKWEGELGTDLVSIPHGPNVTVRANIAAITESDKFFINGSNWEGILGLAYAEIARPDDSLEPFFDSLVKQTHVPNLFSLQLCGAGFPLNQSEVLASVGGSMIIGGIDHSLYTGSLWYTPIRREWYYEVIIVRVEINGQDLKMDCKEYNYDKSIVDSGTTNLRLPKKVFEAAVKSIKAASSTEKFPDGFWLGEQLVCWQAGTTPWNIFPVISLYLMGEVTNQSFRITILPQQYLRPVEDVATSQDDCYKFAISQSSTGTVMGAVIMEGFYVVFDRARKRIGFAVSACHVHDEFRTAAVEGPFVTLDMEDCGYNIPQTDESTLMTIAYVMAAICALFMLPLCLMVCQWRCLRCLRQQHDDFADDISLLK
T3 sequence (O42275 whole entry): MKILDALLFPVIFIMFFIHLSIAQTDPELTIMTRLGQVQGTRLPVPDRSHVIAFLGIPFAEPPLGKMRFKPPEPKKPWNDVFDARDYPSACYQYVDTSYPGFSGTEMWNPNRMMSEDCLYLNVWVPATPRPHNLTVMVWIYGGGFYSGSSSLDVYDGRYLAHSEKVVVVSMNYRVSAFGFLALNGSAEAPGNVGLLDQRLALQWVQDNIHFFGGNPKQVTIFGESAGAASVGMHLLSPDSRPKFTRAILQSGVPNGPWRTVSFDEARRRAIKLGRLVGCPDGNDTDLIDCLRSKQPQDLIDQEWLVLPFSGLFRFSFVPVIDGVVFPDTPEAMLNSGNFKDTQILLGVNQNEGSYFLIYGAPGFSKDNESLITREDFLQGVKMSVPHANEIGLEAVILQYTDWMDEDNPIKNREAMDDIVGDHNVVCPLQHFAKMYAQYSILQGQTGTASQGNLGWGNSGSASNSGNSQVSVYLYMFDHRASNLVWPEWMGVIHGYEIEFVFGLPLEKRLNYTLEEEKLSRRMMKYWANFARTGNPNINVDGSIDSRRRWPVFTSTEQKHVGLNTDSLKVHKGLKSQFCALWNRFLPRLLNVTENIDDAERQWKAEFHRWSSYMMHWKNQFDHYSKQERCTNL
T5 sequence (P49841 whole entry): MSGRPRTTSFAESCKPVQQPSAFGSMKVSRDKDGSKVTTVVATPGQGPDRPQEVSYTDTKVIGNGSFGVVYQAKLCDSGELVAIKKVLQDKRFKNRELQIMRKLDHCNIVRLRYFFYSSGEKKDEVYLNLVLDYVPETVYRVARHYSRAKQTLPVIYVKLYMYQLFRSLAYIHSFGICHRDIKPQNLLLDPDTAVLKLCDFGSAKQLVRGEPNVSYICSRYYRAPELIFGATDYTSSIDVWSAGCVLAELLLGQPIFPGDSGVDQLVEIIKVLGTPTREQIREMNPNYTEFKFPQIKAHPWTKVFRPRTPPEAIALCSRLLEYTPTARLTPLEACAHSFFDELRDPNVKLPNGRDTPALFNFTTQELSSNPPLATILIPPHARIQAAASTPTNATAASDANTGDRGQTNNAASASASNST
Chain of High affinity cGMP-specific 3',5'-cyclic phosphodiesterase 9A (O76083 whole entry): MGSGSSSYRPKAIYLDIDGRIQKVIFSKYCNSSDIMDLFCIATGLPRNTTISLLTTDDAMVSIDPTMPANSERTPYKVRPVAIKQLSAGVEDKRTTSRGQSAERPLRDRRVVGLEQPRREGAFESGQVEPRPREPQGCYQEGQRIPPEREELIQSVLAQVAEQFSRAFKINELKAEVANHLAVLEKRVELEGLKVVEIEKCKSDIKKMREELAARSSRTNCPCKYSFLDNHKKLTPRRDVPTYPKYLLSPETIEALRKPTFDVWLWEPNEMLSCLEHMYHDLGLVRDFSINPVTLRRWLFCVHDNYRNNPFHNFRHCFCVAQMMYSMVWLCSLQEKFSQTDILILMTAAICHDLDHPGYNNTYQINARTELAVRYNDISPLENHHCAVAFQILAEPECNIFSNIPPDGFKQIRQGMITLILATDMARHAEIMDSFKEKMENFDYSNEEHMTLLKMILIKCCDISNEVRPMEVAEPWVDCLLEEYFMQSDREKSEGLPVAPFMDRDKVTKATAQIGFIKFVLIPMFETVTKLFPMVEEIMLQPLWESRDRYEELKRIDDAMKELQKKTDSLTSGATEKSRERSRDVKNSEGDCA

## O=C1[C@@H]2Cc3c([nH]c4ccccc34)[C@@H](c3ccc4c(c3)OCO4)N2C(=O)CN1CCC1CCN(Cc2ccccc2)CC1
Acetylcholinesterase [1]
  pIC50: 7.52

## CSc1ccc(/C=C/C(=O)c2ccccc2N)cn1
Acetylcholinesterase [2]
  pIC50: 5.91

## CN1CCN(c2ccc(C(=O)/C=C/c3cc(Br)ccc3F)cc2)CC1
Cholinesterase
  pIC50: 5.03

## O=C(/C=C/c1ccc(Cl)cc1)c1ccc(Cl)s1
[3]
  pIC50: 5.80
Acetylcholinesterase [4]
  pIC50: 4.83
Cholinesterase
  pIC50: 4.71
[5]
  pIC50: 6.10

## O=c1[nH]c(COCCC2CCN(Cc3ccccc3)CC2)nc2c1cnn2C1CCCC1
Acetylcholinesterase [6]
  pIC50: 6.64
[7]
  pIC50: 6.28

## Cn1c(NCC(=O)c2ccccc2)nc(-c2ccncc2)cc1=O
[8]
  pIC50: 5.25

## COc1ccc2c(c1)C/C(=C/c1ccccc1-c1ccccc1)C2=O
Beta-secretase 1 [9]
  pIC50: 6.90
Acetylcholinesterase [10]
  pIC50: 7.53

## COc1ccc(NC(=O)C2CCN(Cc3ccccc3)CC2)cc1
Acetylcholinesterase [11]
  pIC50: 6.78
Beta-secretase 1 [12]
  pIC50: 6.60

## COc1ccc([C@@H]2c3[nH]c4ccccc4c3C[C@@H]3C(=O)N(CCC4CCN(Cc5ccccc5)CC4)CC(=O)N23)cc1
Acetylcholinesterase [13]
  inhibition: 55.4%

## COc1cc(/C=C/c2nnc(-c3ccc(C(F)(F)F)cc3)o2)ccc1O
[14]
  Papp at 18 h: 5.3 ×10⁻⁶ cm/s

## CCO/C(C)=N/Oc1ccc(/C=C/C(=O)c2ccc(F)cc2)cc1
[3]
  pIC50: 4.76
Acetylcholinesterase [4]
  pIC50: 6.17
[5]
  pIC50: 7.70

## CCO/C(C)=N/Oc1ccc(/C=C/C(=O)c2ccc(C)cc2)cc1
[3]
  pIC50: 4.82
Acetylcholinesterase [4]
  pIC50: 6.07
[5]
  pIC50: 7.52

## COc1ccc(/C=C/C(=O)c2ccccc2O)cc1OC
Acetylcholinesterase [6]
  pIC50: 4.55
[15]
  pIC50: 5.85

## O=C(/C=C/c1ccc(Br)cc1)c1ccc(Cl)s1
[3]
  pIC50: 5.87
Acetylcholinesterase [4]
  pIC50: 4.79
Cholinesterase
  pIC50: 4.71
[5]
  pIC50: 6.15

## COc1ccc2c(c1)C/C(=C/c1ccccc1-c1ccc3nc(N)ccc3c1)C2=O
Beta-secretase 1 [9]
  pIC50: 7.88
Acetylcholinesterase [10]
  pIC50: 7.83

## Nc1ccccc1C(=O)/C=C/c1cnc2ccccc2c1
Acetylcholinesterase [2]
  pIC50: 6.27
Beta-secretase 1 [16]
  pIC50: 4.77

## CN(Cc1ccccc1)Cc1ccc(/C=C2/Cc3ccc(OCCCCCN4CCN(C(c5ccc(F)cc5)c5ccc(F)cc5)CC4)cc3C2=O)cc1
Beta-secretase 1 [9]
  pIC50: 6.47
Acetylcholinesterase [10]
  pIC50: 7.36

## O=C(/C=C/c1ccccc1)c1ccccc1 [CHALCONE]
Acetylcholinesterase [6]
  pIC50: 4.55

## O=c1ccoc2ccc(OCCCN3CCCCC3)cc12
[5]
  pIC50: 5.14
Acetylcholinesterase [17]
  pIC50: 5.25

## O=C(CN1CCC(Cc2ccccc2)CC1)c1ccc2ccccc2c1
Acetylcholinesterase [17]
  pIC50: 5.04

## CCN(CCCCOc1ccc(C(=O)/C=C/c2ccc(N(C)C)cc2)c(O)c1)Cc1ccccc1N(C)C
Acetylcholinesterase [4]
  pIC50: 6.89
Cholinesterase
  pIC50: 6.89

## Nc1ccccc1C(=O)/C=C/c1ccc(Cl)nc1
Acetylcholinesterase [2]
  pIC50: 4.72
Beta-secretase 1 [16]
  pIC50: 5.08

## COc1ccc([C@@H]2c3[nH]c4ccccc4c3C[C@H]3C(=O)N(CCC4CCN(Cc5ccccc5)CC4)CC(=O)N23)cc1
Acetylcholinesterase [1]
  pIC50: 8.00

## COc1ccc(NC(=O)C2CCN(Cc3ccccc3)CC2)cc1OC
Acetylcholinesterase [11]
  pIC50: 6.84
Beta-secretase 1 [12]
  pIC50: 6.61

## COc1nc(-c2ccnc(NC(=O)C3CC3)c2)sc1C(=O)NCCNc1c2c(nc3ccccc13)CCCC2
[18]
  pIC50: 7.18
Acetylcholinesterase [19]
  pIC50: 8.19

## Cn1c(NCCCCCCCNc2c3c(nc4cc(Cl)ccc24)CCCC3)nc(-c2ccncc2F)cc1=O
Acetylcholinesterase [1]
  pIC50: 7.29

## COc1ccc(-c2ccccc2/C=C2/Cc3cc(OC)ccc3C2=O)cc1
Beta-secretase 1 [9]
  pIC50: 7.00
Acetylcholinesterase [10]
  pIC50: 7.67
